Test results reported in ChEMBL document CHEMBL1201862, “PubChem BioAssay data set” (2004).
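These data come from cells grown in 96-well plates and exposed to compound for 48 hours at five concentrations. GI50 is the concentration that inhibits growth by half.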 Calls of active or inactive are those of the source. Rule as the data show it: active = GI50 up to about 1.1 µM and inactive = higher.

Assays:
Assay in all cases: inhibition of tumour cell growth, NCI panel, 48 h
A549 = tested on: A549
SN12C = tested on: SN12C
SF-268 = tested on: SF-268
HT-29 = tested on: HT-29
SNB-19 = tested on: SNB-19
NCI/ADR-RES = tested on: NCI/ADR-RES
RPMI-8226 = tested on: RPMI-8226
HCT-116 = tested on: HCT-116
OVCAR-4 = tested on: OVCAR-4
NCI-H23 = tested on: NCI-H23
HOP-92 = tested on: HOP-92
Malme-3M = tested on: Malme-3M
HOP-62 = tested on: HOP-62
OVCAR-3 = tested on: OVCAR-3
SK-MEL-5 = tested on: SK-MEL-5
SF-539 = tested on: SF-539
CAKI-1 = tested on: CAKI-1
SW-620 = tested on: SW-620
SF-295 = tested on: SF-295
TK-10 = tested on: TK-10

Measured: GI50

C=CCn1c2ccccc2c2c(C)c3cnccc3c(C)c21
inactive: A549 9.77 µM | SN12C 9.1 µM | SF-268 7.98 µM | HT-29 8.93 µM | SNB-19 12.9 µM | NCI/ADR-RES 4.91 µM | RPMI-8226 3.61 µM | HCT-116 4.48 µM | OVCAR-4 8.97 µM | NCI-H23 6.95 µM | HOP-92 1.92 µM | Malme-3M 13.8 µM | HOP-62 9.98 µM | OVCAR-3 11.1 µM | SK-MEL-5 6.82 µM | SF-539 10.7 µM | CAKI-1 2.06 µM | SW-620 6.61 µM | SF-295 9.86 µM

COc1cc(/C=C(/C#N)C(N)=O)ccc1O
inactive: A549 > 100 µM | SN12C > 100 µM | SF-268 > 100 µM | HT-29 > 100 µM | SNB-19 > 100 µM | NCI/ADR-RES > 100 µM | RPMI-8226 > 100 µM | HCT-116 > 100 µM | OVCAR-4 > 100 µM | NCI-H23 > 100 µM | HOP-92 > 56.8 µM | Malme-3M 53.6 µM | HOP-62 > 100 µM | OVCAR-3 > 100 µM | SK-MEL-5 > 22.2 µM | SF-539 > 100 µM | CAKI-1 > 100 µM | SW-620 > 100 µM | SF-295 > 100 µM

C=CC12CN(C)C3C4COC(CC41)C1(C(=O)Nc4ccccc41)C32 (stereo not drawn)
inactive: A549 166 µM | SN12C > 200 µM | SF-268 173 µM | HT-29 > 145 µM | SNB-19 > 200 µM | NCI/ADR-RES > 165 µM | RPMI-8226 > 195 µM | HCT-116 158 µM | OVCAR-4 > 200 µM | NCI-H23 > 173 µM | HOP-92 > 140 µM | Malme-3M 174 µM | HOP-62 > 147 µM | OVCAR-3 > 200 µM | SK-MEL-5 > 200 µM | SF-539 > 200 µM | CAKI-1 > 200 µM | SW-620 174 µM | SF-295 > 200 µM

O=C(O)CN(CC(=O)O)C1CCCCC1N(CC(=O)O)CC(=O)NCCN=C=S (stereo not drawn)
inactive: A549 > 100 µM | SN12C > 100 µM | SF-268 > 100 µM | HT-29 > 100 µM | SNB-19 > 100 µM | NCI/ADR-RES > 100 µM | RPMI-8226 > 100 µM | HCT-116 > 100 µM | TK-10 > 100 µM | NCI-H23 > 100 µM | HOP-92 > 100 µM | Malme-3M > 100 µM | HOP-62 > 100 µM | OVCAR-3 > 100 µM | SK-MEL-5 > 100 µM | SF-539 > 100 µM | CAKI-1 > 100 µM | SW-620 > 100 µM | SF-295 > 100 µM

COc1ccc(C(=O)c2c(-c3ccccc3NC(=O)C(F)(F)F)[nH]c3ccccc23)cc1
inactive: A549 5.66 µM | SN12C 14.6 µM | SF-268 12.8 µM | HT-29 3.97 µM | SNB-19 6.37 µM | NCI/ADR-RES 8.28 µM | RPMI-8226 4.8 µM | HCT-116 12.2 µM | OVCAR-4 4.59 µM | TK-10 11.6 µM | NCI-H23 11.7 µM | HOP-92 12.4 µM | Malme-3M 14.4 µM | HOP-62 9.16 µM | OVCAR-3 3.83 µM | SK-MEL-5 8.95 µM | SF-539 1.94 µM | CAKI-1 6.41 µM | SW-620 4.06 µM | SF-295 12.1 µM

N/C(=N\O)N/N=C\c1c(O)cc(O)cc1O
inactive: A549 45.1 µM | SN12C 78.7 µM | SF-268 > 100 µM | HT-29 93.8 µM | SNB-19 65.9 µM | NCI/ADR-RES 79.6 µM | RPMI-8226 15.6 µM | HCT-116 > 94.2 µM | OVCAR-4 > 68.4 µM | NCI-H23 > 75 µM | HOP-92 54.8 µM | Malme-3M > 100 µM | HOP-62 > 87.9 µM | OVCAR-3 > 65.9 µM | SK-MEL-5 50.6 µM | SF-539 > 100 µM | CAKI-1 > 100 µM | SW-620 > 70.3 µM | SF-295 > 46.8 µM

Cc1[nH]c(=O)[nH]c(=O)c1/C=C/C(=O)NC(CO)C[S+]([O-])Cc1ccccc1 (stereo not drawn)
inactive: A549 > 300 µM | SN12C > 300 µM | SF-268 > 300 µM | HT-29 > 300 µM | SNB-19 > 300 µM | NCI/ADR-RES > 300 µM | RPMI-8226 > 300 µM | HCT-116 > 300 µM | NCI-H23 > 300 µM | HOP-92 > 190 µM | Malme-3M > 300 µM | HOP-62 > 300 µM | OVCAR-3 > 300 µM | SK-MEL-5 > 300 µM | SF-539 > 300 µM | CAKI-1 > 300 µM | SW-620 > 300 µM | SF-295 > 300 µM
